Values quoted from earlier work in patent publication US20020098247A1, “Methods and compositions for the improvement of insulin sensitivity, reduction of hyperglycemia, and reduction of hypercholesterolemia with chromium complexes and alpha lipoic acid” (priority 2000, published 2002).
One block for each compound: values may come before it.

Assays:
[1] = test system: patients with Type II diabetes; settings: 600 mg intravenously three weeks, then 6 months tid oral
[2] = test system: Patients with Type II diabetes with symptomatic polyneuropathy; settings: intravenous, three weeks
[3] = test system: isolated vasculature of diabetic rats
[4] = test system: patients with Type I and Type II diabetes
[5] = test system: patients with Type II diabetes; settings: 600 mg tid orally, three weeks
[6] = rats, oral administration of CrCl3 with the NSAID

SMILES: O=C(O)CCCCC1CCSS1 (stereo not drawn) [alpha-lipoic acid]
- neuropathy as evidenced by the TSS vs placebo [1]: significantly lessened
- side effects between groups [1]: no significant differences
- frequency of adverse effects ([2]; 1,200 mg dose group vs other groups): slightly greater rate of gastrointestinal side effects
- decrease of Total Symptom Score (TSS) in the feet ([2]; two higher doses (600, 1,200 mg per day)): approximately 60%
- prevention of the deficit in acetylcholine-induced relaxation in isolated vasculature [3]: 94%
- sensory nerve and tibial nerve conduction velocities ([4]; 600 or 1,200 mg per day, intravenous five days then oral two years): improvements
- Neuropathy Disability Score values ([4]; 600 or 1,200 mg per day, two years): not significantly affected
- incidence or severity of side effects vs placebo ([4]; two-year study): no significant differences
- TSS in the feet and NDS scores [5]: improvements
- side effects vs placebo [5]: No significant differences

- chromium absorption [6]: facilitated
SMILES: CC(=O)Oc1ccccc1C(=O)O [aspirin, acetylsalicylic acid]
